# Measurements published in patent US6482829B2, “Substituted heterocyclic siprodecane compound active as an antagonist of neurokinin 1 receptor” (Hoffmann-La Roche Inc., priority 2000, dated 2002).
# Biological target: human NK1 receptors (Homo sapiens, UniProt P25103)
# Assay: Affinity for the NK1 receptor, [3H]substance P displacement binding assay
# Settings: human NK1 receptors in CHO cells (Semliki virus expression system); [3H]substance P 0.6 nM; 60 min at room temperature
# Method: The affinity of test compounds for the NK1 receptor was evaluated at human NK1 receptors in CHO cells infected with the human NK1 receptor (using the Semliki virus expression system) and radiolabelled with [^3H]substance P (final concentration 0.6 nM). Binding assays were performed in HEPES buffer (50 mM, pH 7.4) containing BSA (0.04%) leupeptin (8 μg/ml), MnCl2 (3 mM) and phosphoramidon (2 μM). Binding assays consisted of 250 μl of membrane suspension (1.25×10^5 cells/assay tube), […] of buffer of displacing agent and 125 μl of [^3H]substance P. Displacement curves were determined with at least seven concentrations of the compound. The assay tubes were incubated for 60 min at room temperature after which time the tube contents were rapidly filtered under vacuum through GF/C filters presoaked for 60 min with PEI (0.3%) with 2×2 ml washes of HEPES buffer (50 mM, pH 7.4). The radioactivity retained on the filters was measured by scintillation counting. All assays were performed in triplicate in at least 2 separate experiments.
# human NK1 receptors, sequence (P25103 whole entry): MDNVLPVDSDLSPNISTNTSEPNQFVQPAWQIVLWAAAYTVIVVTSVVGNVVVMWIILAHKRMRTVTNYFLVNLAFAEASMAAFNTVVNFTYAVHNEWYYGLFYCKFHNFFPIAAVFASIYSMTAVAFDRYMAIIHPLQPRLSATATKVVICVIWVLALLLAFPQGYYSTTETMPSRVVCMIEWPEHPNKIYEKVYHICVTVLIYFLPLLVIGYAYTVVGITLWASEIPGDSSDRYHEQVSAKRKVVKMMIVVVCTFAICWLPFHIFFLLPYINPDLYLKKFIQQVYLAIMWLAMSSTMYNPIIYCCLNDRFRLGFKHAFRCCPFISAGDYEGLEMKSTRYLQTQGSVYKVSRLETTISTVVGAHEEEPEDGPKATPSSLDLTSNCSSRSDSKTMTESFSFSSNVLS
row,pKi (affinity to the NK-1 receptor),Compound
1,8.29,"Cc1ccccc1N1CN(Cc2cccnc2)C(=O)C12CCN(C(=O)c1cc(C(F)(F)F)cc(C(F)(F)F)c1)CC2 [Example 45, 8-(3,5-Bis-trifluoromethyl-benzoyl)-3-pyridin-3-yl-methyl-1-o-tolyl-1,3,8-triaza-spiro[4.5]decan-4-one]"
2,8.34,"Rac-8-(3,5-Bis-trifluoromethyl-benzoyl)-3-(2-methoxy-ethyl)-2-methyl-1-o-tolyl-1,3,8-triaza-spiro[4.5]decan-4-one [Example 137]"

# Same assay, conditions: human NK1 receptors in CHO cells (Semliki virus expression system); [3H]substance P 0.6 nM; 60 min at room temperature; read-out: pKi (affinity to the NK-1 receptor) (converted)
row,Compound,Ki [nM]
1,"Cc1ccccc1C1CNC(=O)C12CCN(C(=O)c1cc(C(F)(F)F)cc(C(F)(F)F)c1)CC2 (racemic) [Example 176, (rac)-8-(3,5-Bis-trifluoromethyl-benzoyl)-4-o-tolyl-2,8-diaza-spiro[4.5]decan-1-one]",7.59
2,"COc1nc(OC)nc(N2CN(c3ccccc3)C3(CCN(C(=O)c4cc(C(F)(F)F)cc(C(F)(F)F)c4)CC3)C2=O)n1 [Example 6, 8-(3,5-Bis-trifluoromethyl-benzoyl)-3-(4,6-dimethoxy-[1,3,5]triazin-2-yl)-1-phenyl-1,3,8-triaza-spiro[4.5]decan-4-one]",2.19
3,"O=C(c1cc(C(F)(F)F)cc(C(F)(F)F)c1)N1CCC2(CC1)C(=O)N(c1ncc(Cl)cc1Cl)CN2c1ccccc1 [Example 26, 8-(3,5-Bis-trifluoromethyl-benzoyl)-3-(3,5-dichloro-pyridin-2-yl)-1-phenyl-1,3,8-triaza-spiro[4.5]decan-4-one]",33.9
4,"COc1nc(OC)nc(N2CN(c3ccc(Cl)c(Cl)c3)C3(CCN(C(=O)c4cc(C(F)(F)F)cc(C(F)(F)F)c4)CC3)C2=O)n1 [Example 39, 8-(3,5-Bis-trifluoromethyl-benzoyl)-1-(3,4-dichloro-phenyl)-3-(4,6-dimethoxy-[1,3,5]triazin-2-yl)-1,3,8-triaza-spiro[4.5]decan-4-one]",93.3
5,"Cc1ccccc1N1CN(CCN2CCCC2)C(=O)C12CCN(C(=O)c1cc(C(F)(F)F)cc(C(F)(F)F)c1)CC2 [Example 58, 8-(3,5-Bis-trifluoromethyl-benzoyl)-3-(2-pyrrolidin-1-yl-ethyl)-1-o-tolyl-1,3,8-triaza-spiro[4.5]decan-4-one]",8.32
6,"CN1CN(c2ccccc2Cl)C2(CCN(C(=O)c3cc(C(F)(F)F)cc(C(F)(F)F)c3)CC2)C1=O [Example 70, 8-(3,5-Bis-trifluoromethyl-benzoyl)-1-(2-chloro-phenyl)-3-methyl-1,3,8-triaza-spiro[4.5]decan-4-one]",4.27

# Further lines, results first:
row,Ki [nM],Compound
1,7.59,"CC1NC(=O)C2(CCN(C(=O)c3cc(C(F)(F)F)cc(C(F)(F)F)c3)CC2)N1c1ccccc1 (racemic) [Example 91, (rac)-8-(3,5-Bis-trifluoromethyl-benzoyl)-2-methyl-1-phenyl-1,3,8-triaza-spiro[4.5]decan-4-one]"
2,11,"Cc1ccccc1C1=CN(C)C(=O)C12CCN(C(=O)c1cc(C(F)(F)F)cc(C(F)(F)F)c1)CC2 [Example 170, 8-(3,5-Bis-trifluoromethyl-benzoyl)-2-methyl-4-o-tolyl-2,8-diaza-spiro[4.5]dec-3-en-1-one]"

# Test system: not given
# Assay: not given
# Settings: not given
row,Compound,melting point [°C]
1,O=C(c1cc(C(F)(F)F)cc(C(F)(F)F)c1)N1CCC2(CC1)C(=O)NC(=O)N2c1ccccc1Cl,153 to 154
2,"O=C(c1cc(C(F)(F)F)cc(C(F)(F)F)c1)N1CCC2(CC1)C(=O)NCN2c1cccc(Cl)c1 [Example 63, 8-(3,5-Bis-trifluoromethyl-benzoyl)-1-(3-chloro-phenyl)-1,3,8-triaza-spiro[4.5]decan-4-one]",235 to 236
3,"O=C(c1cc(C(F)(F)F)cc(C(F)(F)F)c1)N1CCC2(CC1)C(=O)NCN2c1ccc(Cl)cc1 [Example 64, 8-(3,5-Bis-trifluoromethyl-benzoyl)-1-(4-chloro-phenyl)-1,3,8-triaza-spiro[4.5]decan-4-one]",233 to 235
4,"O=C(c1cc(C(F)(F)F)cc(C(F)(F)F)c1)N1CCC2(CC1)C(=O)NCN2c1ccccc1Cl [Example 67, 8-(3,5-Bis-trifluoromethyl-benzoyl)-1-(2-chloro-phenyl)-1,3,8-triaza-spiro[4.5]decan-4-one]",157 to 159

# Continued, values first:
row,melting point [°C],Compound
1,251,"O=C(c1cc(C(F)(F)F)cc(C(F)(F)F)c1)N1CCC2(CC1)C(=O)NCN2c1ccccc1 [Example 1, 8-(3,5-Bis-trifluoromethyl-benzoyl)-1-phenyl-1,3,8-triaza-spiro[4.5]decan-4-one]"
2,212 to 214,"O=C(c1cc(C(F)(F)F)cc(C(F)(F)F)c1)N1CCC2(CC1)C(=O)N(c1cc(Cl)ncn1)CN2c1ccccc1 [Example 61, 8-(3,5-Bis-trifluoromethyl-benzoyl)-3-(6-chloro-pyrimidin-4-yl)-1-phenyl-1,3,8-triaza-spiro[4.5]decan-4-one]"
3,220 to 222,"O=C(c1cc(C(F)(F)F)cc(C(F)(F)F)c1)N1CCC2(CC1)C(=O)NCN2c1ccc(Cl)c(Cl)c1 [Example 65, 8-(3,5-Bis-trifluoromethyl-benzoyl)-1-(3,4-dichloro-phenyl)-1,3,8-triaza-spiro[4.5]decan-4-one]"
4,164 to 168,"Cc1ccccc1N1CNC(=O)C12CCN(C(=O)c1cc(C(F)(F)F)cc(C(F)(F)F)c1)CC2 [Example 66, 8-(3,5-Bis-trifluoromethyl-benzoyl)-1-o-tolyl-1,3,8-triaza-spiro[4.5]decan-4-one]"
